Laboratory results as given in patent US20250163104A1, “MACROCYCLIC IMMUNOMODULATORS” (priority 2021, published 2025).
pIC50: −log10 of the molar value. Where a SMILES comes first, the peptide text is derived from it. Bridges are numbered along the chain shown (N, C = ends). [ ]: non-standard residue; d: D form. The star is where a group is joined. Phe(4-COOH) = N[C@@H](Cc1ccc(C(=O)O)cc1)C(=O)O; Bip = N[C@@H](Cc1ccc(-c2ccccc2)cc1)C(=O)O; 4Pal = N[C@@H](Cc1ccncc1)C(=O)O; Cha = N[C@@H](CC1CCCCC1)C(=O)O; Carboxymethyl = O=C(O)C*; Nle = CCCC[C@H](N)C(=O)O; Orn = NCCC[C@H](N)C(=O)O; Dab = NCC[C@H](N)C(=O)O; Dap = NC[C@H](N)C(=O)O

molecular target: T1, human PD-1 / PD-L1-Ig binding on Jurkat cell line over-expressing human PD-1 (Jurkat-PD-1) (Homo sapiens, UniProt Q15116); experiment: Jurkat-PD-1 Cell Binding High-Content Screening Assay (CBA); assay type: cell-based; conditions: Jurkat HPD1_PDL1 IC50, Jurkat-PD-1 cells, PE-labeled PD-L1-Ig 20 nM final
T1 construct: expressed in transfected cells; host or cells: Jurkat
T1 sequence (Q15116 25-288): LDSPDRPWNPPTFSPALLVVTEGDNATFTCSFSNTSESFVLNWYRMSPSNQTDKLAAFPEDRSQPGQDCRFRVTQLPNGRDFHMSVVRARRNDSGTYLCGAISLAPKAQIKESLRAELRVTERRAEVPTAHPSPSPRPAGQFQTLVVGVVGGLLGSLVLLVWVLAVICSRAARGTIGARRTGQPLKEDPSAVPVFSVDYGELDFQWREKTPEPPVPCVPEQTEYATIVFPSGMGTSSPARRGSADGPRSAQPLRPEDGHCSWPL
Procedure, shortened: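 PE-PD-L1-Ig 20 nM final; cells in DMEM/10% FCS; cpd pre-incubation 2 h, 37° C; ligand 1 h; PFA fix + Hoechst 33342; high-content imaging read-out.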

Row | SMILES | pIC50
1 | CC(C)C[C@@H]1NC(=O)[C@H](Cc2c[nH]c3ccccc23)NC(=O)[C@H](CC(=O)O)NC(=O)[C@H](Cc2ccc(OCC(=O)O)cc2)NC(=O)[C@H](CN)NC(=O)CSC[C@@H](C(=O)NCC(N)=O)NC(=O)[C@H](CO)NC(=O)[C@H](C(C)C)NC(=O)[C@H](CC2CCCCC2)NC(=O)[C@H](CC(N)=O)NC(=O)[C@@H](CC(C)C)NC(=O)[C@H](CN)NC(=O)[C@H](C(C)C)NC(=O)[C@H](Cc2ccc(-c3ccccc3)cc2)NC1=O [Compound 1394] ({CH2CO}-[Dap]Y(Carboxymethyl)DWL[Bip]V[Dap][dL]N[Cha]VSCG-NH2; thioether N-14) | 8.12

same assay, conditions: Jurkat-PD-1 cells, PE-labeled PD-L1-Ig 20 nM final; read-out: Jurkat HPD1_PDL1 IC50

Row | SMILES | pIC50
2 | CC(C)C[C@H]1NC(=O)[C@H](CCCN)NC(=O)[C@H](CCCN)NC(=O)[C@H](Cc2ccc(-c3ccccc3)cc2)NC(=O)[C@H](C(C)C)NC(=O)[C@H](Cc2c[nH]c3ccccc23)NC(=O)[C@H](CC(=O)O)NC(=O)[C@H](Cc2ccncc2)NC(=O)[C@H](CN)NC(=O)CSC[C@@H](C(=O)N[C@@H](C)C(N)=O)NC(=O)[C@H]([C@@H](C)O)NC(=O)[C@H](C(C)C)NC(=O)[C@H](CC2CCCCC2)NC(=O)[C@H](CCN)NC1=O [Compound 1386] ({CH2CO}-[Dap][4Pal]DWV[Bip][Orn][Orn][dL][Dab][Cha]VTCA-NH2; thioether N-14) | 7.97
3 | CC(C)C[C@H]1NC(=O)[C@H](CCCN)NC(=O)[C@H](CCN)NC(=O)[C@H](Cc2ccc(-c3ccccc3)cc2)NC(=O)[C@H](C(C)C)NC(=O)[C@H](Cc2c[nH]c3ccccc23)NC(=O)[C@H](CC(=O)O)NC(=O)[C@H](Cc2ccncc2)NC(=O)[C@H](CN)NC(=O)CSC[C@@H](C(=O)N[C@@H](C)C(N)=O)NC(=O)[C@H]([C@@H](C)O)NC(=O)[C@H](C(C)C)NC(=O)[C@H](CC2CCCCC2)NC(=O)[C@H](CCN)NC1=O [Compound 1387] | 7.60
4 | CC(C)C[C@H]1NC(=O)[C@H](CCCN)NC(=O)[C@H](CN)NC(=O)[C@H](Cc2ccc(-c3ccccc3)cc2)NC(=O)[C@H](C(C)C)NC(=O)[C@H](Cc2c[nH]c3ccccc23)NC(=O)[C@H](CC(=O)O)NC(=O)[C@H](Cc2ccncc2)NC(=O)[C@H](CN)NC(=O)CSC[C@@H](C(=O)N[C@@H](C)C(N)=O)NC(=O)[C@H]([C@@H](C)O)NC(=O)[C@H](C(C)C)NC(=O)[C@H](CC2CCCCC2)NC(=O)[C@H](CCN)NC1=O [Compound 1388] | 7.59
5 | CC(C)C[C@H]1NC(=O)[C@H](CCCN)NC(=O)[C@H](CCCCN)NC(=O)[C@H](Cc2ccc(-c3ccccc3)cc2)NC(=O)[C@H](C(C)C)NC(=O)[C@H](Cc2c[nH]c3ccccc23)NC(=O)[C@H](CC(=O)O)NC(=O)[C@H](Cc2ccncc2)NC(=O)[C@H](CN)NC(=O)CSC[C@@H](C(=O)N[C@@H](C)C(N)=O)NC(=O)[C@H]([C@@H](C)O)NC(=O)[C@H](C(C)C)NC(=O)[C@H](CC2CCCCC2)NC(=O)[C@H](CCN)NC1=O [Compound 1389] ({CH2CO}-[Dap][4Pal]DWV[Bip]K[Orn][dL][Dab][Cha]VTCA-NH2; thioether N-14) | 8.07
6 | CC(C)C[C@H]1NC(=O)[C@H](CCCN)NC(=O)[C@H](CCCN)NC(=O)[C@H](Cc2ccc(-c3ccccc3)cc2)NC(=O)[C@H](C(C)C)NC(=O)[C@H](Cc2c[nH]c3ccccc23)NC(=O)[C@H](CC(=O)O)NC(=O)[C@H](Cc2ccc(OCC(=O)O)cc2)NC(=O)[C@H](Cc2ccncc2)NC(=O)CSC[C@@H](C(=O)N[C@@H](C)C(N)=O)NC(=O)[C@H]([C@@H](C)O)NC(=O)[C@H](C(C)C)NC(=O)[C@H](CC2CCCCC2)NC(=O)[C@H](CCN)NC1=O [Compound 1390] | 7.78
7 | CC[C@H](C)[C@@H]1NC(=O)[C@H](Cc2ccc(-c3ccccc3)cc2)NC(=O)[C@H](C(C)C)NC(=O)[C@H](Cc2c[nH]c3ccccc23)NC(=O)[C@H](CC(=O)O)NC(=O)[C@H](Cc2ccc(OCC(=O)O)cc2)NC(=O)[C@H](CN)NC(=O)CSC[C@@H](C(=O)N[C@@H](C)C(N)=O)NC(=O)[C@H]([C@@H](C)O)NC(=O)[C@H](C(C)C)NC(=O)[C@H](CC2CCCCC2)NC(=O)[C@H](CCN)NC(=O)[C@@H](CC(C)C)NC(=O)[C@H](CCCN)NC1=O [Compound 1391] | 8.30

Continued, values first:

Row | pIC50 | SMILES
8 | 7.96 | CC(C)C[C@H]1NC(=O)[C@H](CCCN)NC(=O)[C@H](CN)NC(=O)[C@H](Cc2ccc(-c3ccccc3)cc2)NC(=O)[C@H](C(C)C)NC(=O)[C@H](Cc2c[nH]c3ccccc23)NC(=O)[C@H](CC(=O)O)NC(=O)[C@H](Cc2ccc(C(=O)O)cc2)NC(=O)[C@H](Cc2ccc(OCC(=O)O)cc2)NC(=O)CSC[C@@H](C(=O)N[C@@H](C)C(N)=O)NC(=O)[C@H]([C@@H](C)O)NC(=O)[C@H](C(C)C)NC(=O)[C@H](CC2CCCCC2)NC(=O)[C@H](CCN)NC1=O [Compound 1384]
9 | 8.21 | CC(C)C[C@H]1NC(=O)[C@H](CCCN)NC(=O)[C@H](CCCCN)NC(=O)[C@H](Cc2ccc(-c3ccccc3)cc2)NC(=O)[C@H](C(C)C)NC(=O)[C@H](Cc2c[nH]c3ccccc23)NC(=O)[C@H](CC(=O)O)NC(=O)[C@H](Cc2ccc(C(=O)O)cc2)NC(=O)[C@H](Cc2ccc(OCC(=O)O)cc2)NC(=O)CSC[C@@H](C(=O)N[C@@H](C)C(N)=O)NC(=O)[C@H]([C@@H](C)O)NC(=O)[C@H](C(C)C)NC(=O)[C@H](CC2CCCCC2)NC(=O)[C@H](CCN)NC1=O [Compound 1385] ({CH2CO}-Y(Carboxymethyl)[Phe(4-COOH)]DWV[Bip]K[Orn][dL][Dab][Cha]VTCA-NH2; thioether N-14)
10 | 7.11 | CC(C)C[C@@H]1NC(=O)[C@H](Cc2c[nH]c3ccccc23)NC(=O)[C@H](CC(=O)O)NC(=O)[C@H](Cc2ccc(O)cc2)NC(=O)[C@H](Cc2ccccc2)NC(=O)CSC[C@@H](C(=O)NCC(N)=O)NC(=O)[C@H](CO)NC(=O)[C@H](C(C)C)NC(=O)[C@H](CC2CCCCC2)NC(=O)[C@H](CC(N)=O)NC(=O)[C@@H](CC(C)C)NC(=O)[C@H](CN)NC(=O)[C@H](C(C)C)NC(=O)[C@H](Cc2ccc(-c3ccccc3)cc2)NC1=O [Compound 1392] ({CH2CO}-FYDWL[Bip]V[Dap][dL]N[Cha]VSCG-NH2; thioether N-14)
11 | 7.60 | CC(C)C[C@@H]1NC(=O)[C@H](Cc2c[nH]c3ccccc23)NC(=O)[C@H](CC(=O)O)NC(=O)[C@H](Cc2ccc(C(=O)O)cc2)NC(=O)[C@H](Cc2ccc(OCC(=O)O)cc2)NC(=O)CSC[C@@H](C(=O)NCC(N)=O)NC(=O)[C@H](CO)NC(=O)[C@H](C(C)C)NC(=O)[C@H](CC2CCCCC2)NC(=O)[C@H](CC(N)=O)NC(=O)[C@@H](CC(C)C)NC(=O)[C@H](CN)NC(=O)[C@H](C(C)C)NC(=O)[C@H](Cc2ccc(-c3ccccc3)cc2)NC1=O [Compound 1393] ({CH2CO}-Y(Carboxymethyl)[Phe(4-COOH)]DWL[Bip]V[Dap][dL]N[Cha]VSCG-NH2; thioether N-14)
12 | 8.00 | CC(C)C[C@@H]1NC(=O)[C@H](Cc2c[nH]c3ccccc23)NC(=O)[C@H](CC(=O)O)NC(=O)[C@H](Cc2ccncc2)NC(=O)[C@H](CN)NC(=O)CSC[C@@H](C(=O)NCC(N)=O)NC(=O)[C@H](CO)NC(=O)[C@H](C(C)C)NC(=O)[C@H](CC2CCCCC2)NC(=O)[C@H](CC(N)=O)NC(=O)[C@@H](CC(C)C)NC(=O)[C@H](CN)NC(=O)[C@H](C(C)C)NC(=O)[C@H](Cc2ccc(-c3ccccc3)cc2)NC1=O [Compound 1395] ({CH2CO}-[Dap][4Pal]DWL[Bip]V[Dap][dL]N[Cha]VSCG-NH2; thioether N-14)
13 | 7.67 | CC(C)C[C@@H]1NC(=O)[C@H](Cc2c[nH]c3ccccc23)NC(=O)[C@H](CC(=O)O)NC(=O)[C@H](Cc2ccncc2)NC(=O)[C@H](Cc2ccc(OCC(=O)O)cc2)NC(=O)CSC[C@@H](C(=O)NCC(N)=O)NC(=O)[C@H](CO)NC(=O)[C@H](C(C)C)NC(=O)[C@H](CC2CCCCC2)NC(=O)[C@H](CC(N)=O)NC(=O)[C@@H](CC(C)C)NC(=O)[C@H](CN)NC(=O)[C@H](C(C)C)NC(=O)[C@H](Cc2ccc(-c3ccccc3)cc2)NC1=O [Compound 1396] ({CH2CO}-Y(Carboxymethyl)[4Pal]DWL[Bip]V[Dap][dL]N[Cha]VSCG-NH2; thioether N-14)
14 | 7.26 | CCCC[C@@H]1NC(=O)[C@H](CC(N)=O)NC(=O)[C@@H](CC(C)C)NC(=O)[C@H](CN)NC(=O)[C@H](C(C)C)NC(=O)[C@H](Cc2ccc(-c3ccccc3)cc2)NC(=O)[C@H](CC(C)C)NC(=O)[C@H](Cc2c[nH]c3ccccc23)NC(=O)[C@H](CC(=O)O)NC(=O)[C@H](Cc2ccc(O)cc2)NC(=O)[C@H](Cc2ccccc2)NC(=O)CSC[C@@H](C(=O)NCC(N)=O)NC(=O)[C@H](CO)NC(=O)[C@H](C(C)C)NC1=O [Compound 1397] ({CH2CO}-FYDWL[Bip]V[Dap][dL]N[Nle]VSCG-NH2; thioether N-14)
15 | 7.63 | CCCC[C@@H]1NC(=O)[C@H](CC(N)=O)NC(=O)[C@@H](CC(C)C)NC(=O)[C@H](CN)NC(=O)[C@H](C(C)C)NC(=O)[C@H](Cc2ccc(-c3ccccc3)cc2)NC(=O)[C@H](CC(C)C)NC(=O)[C@H](Cc2c[nH]c3ccccc23)NC(=O)[C@H](CC(=O)O)NC(=O)[C@H](Cc2ccc(C(=O)O)cc2)NC(=O)[C@H](Cc2ccc(OCC(=O)O)cc2)NC(=O)CSC[C@@H](C(=O)NCC(N)=O)NC(=O)[C@H](CO)NC(=O)[C@H](C(C)C)NC1=O [Compound 1398] ({CH2CO}-Y(Carboxymethyl)[Phe(4-COOH)]DWL[Bip]V[Dap][dL]N[Nle]VSCG-NH2; thioether N-14)
16 | 7.79 | CCCC[C@@H]1NC(=O)[C@H](CC(N)=O)NC(=O)[C@@H](CC(C)C)NC(=O)[C@H](CN)NC(=O)[C@H](C(C)C)NC(=O)[C@H](Cc2ccc(-c3ccccc3)cc2)NC(=O)[C@H](CC(C)C)NC(=O)[C@H](Cc2c[nH]c3ccccc23)NC(=O)[C@H](CC(=O)O)NC(=O)[C@H](Cc2ccc(OCC(=O)O)cc2)NC(=O)[C@H](CN)NC(=O)CSC[C@@H](C(=O)NCC(N)=O)NC(=O)[C@H](CO)NC(=O)[C@H](C(C)C)NC1=O [Compound 1399] ({CH2CO}-[Dap]Y(Carboxymethyl)DWL[Bip]V[Dap][dL]N[Nle]VSCG-NH2; thioether N-14)
